Results: ChEMBL document CHEMBL3351622, “Synthesis and evaluation of 9-deoxy analogues of (-)-thysanone, an inhibitor of HRV 3C protease” (Eur J Med Chem, 2014)
pIC50: −log10 of the molar value.

What was measured:
[1] = Inhibition of human rhinovirus 3C protease; set-up: species or system Human rhinovirus sp.
[2] = Inhibition of human rhinovirus 3C protease incubated for 1 hr by solid phase fluorescent assay; set-up: species or system Human rhinovirus sp.

Compound	pIC50 [1]	pIC50 [2]
C[C@H]1CC2=C(C(=O)c3c(O)cc(O)cc3C2=O)[C@H](O)O1	4.33	4.29
C[C@H]1CC2=C(C(=O)c3ccc(O)cc3C2=O)[C@H](O)O1 (racemic)		4.69
C[C@H]1CC2=C(CO1)C(=O)c1ccc(O)cc1C2=O (racemic)		4.51
CC(C)Oc1ccc2c(c1)C(=O)C1=C(CO[C@@H](C)C1)C2=O (racemic)		4.45
